From BindingDB's records for doi:10.1021/jm00011a020 (H. Lundbeck, 1995)

The compounds below were run against Sigma-2 receptor (TMEM97) (Rattus norvegicus) (assay: Binding affinity towards Sigma receptor site 2 in rat brain using [3H]DTG as radioligand).

| SMILES | IC50 |
| --- | --- |
| c1ccc(CCN2CCC3(CC2)OCc2ccccc23)cc1 [1'-(2-phenylethyl)-3H-spiro[2-benzofuran-1,4'-piperidine]] | 2.9 nM |
| Fc1ccc(-n2cc(CCCCN3CCC4(CC3)SCc3ccccc34)c3ccccc32)cc1 [1'-{4-[1-(4-fluorophenyl)-1H-3-indolyl]butyl}spiro[1,3-dihydrobenzo[c]thiophene-1,4'-(hexahydropyridine)]] | 0.14 nM |
| c1ccc2c(c1)COC21CCN(CCCOC2CCCCC2)CC1 [1'-(3-cyclohexyloxypropyl)-3H-spiro[2-benzofuran-1,4'-piperidine]] | 0.07 nM |
| Fc1ccc(-n2cc(CCCCN3CCC4(CC3)COc3ccccc34)c3ccccc32)cc1 [1'-{4-[1-(4-fluorophenyl)-1H-3-indolyl]butyl}spiro[2,3-dihydrobenzo[b]furan-3,4'-(hexahydropyridine)]] | 12 nM |
| c1ccc2c(c1)COC21CCN(CCCCC2CCCCC2)CC1 [1'-(cyclohexylbutyl)-3H-spiro[2-benzofuran-1,4'-piperidine]] | 0.07 nM |
| Fc1ccc(-n2cc(CCCCN3CCC4(CC3)Oc3ccccc3O4)c3ccccc32)cc1 [1'-{4-[1-(4-fluorophenyl)-1H-3-indolyl]butyl}spiro[benzo[d][1,3]dioxole-2,4'-(hexahydropyridine)]] | 270 nM |
| Fc1ccc(-n2cc(CCCCN3CCC4(CC3)COCc3ccccc34)c3ccccc32)cc1 [1'-{4-[1-(4-fluorophenyl)-1H-3-indolyl]butyl}spiro[3,4-dihydro-1H-isochromene-4,4'-(hexahydropyridine)]] | 0.34 nM |
| Fc1ccc(-n2cc(CCCCN3CCC4(CC3)OCc3cccc(F)c34)c3ccccc32)cc1 [1-[1-(4-fluorophenyl)-1H-3-indolyl]-4-[7-fluorospiro[1,3-dihydroisobenzofuran-1,4'-(hexahydropyridine)]-1-yl]butane] | 0.58 nM |
| Fc1ccc(-n2cc(CCCCN3CCC4(CC3)Cc3ccccc3CO4)c3ccccc32)cc1 [1'-{4-[1-(4-fluorophenyl)-1H-3-indolyl]butyl}spiro[3,4-dihydro-1H-isochromene-3,4'-(hexahydropyridine)]] | 1.1 nM |
| Fc1ccc(-n2cc(CCCCN3CCC4(CC3)OCc3c(C(F)(F)F)cccc34)c3ccccc32)cc1 [1'-{4-[1-(4-fluorophenyl)-1H-3-indolyl]butyl}-4-trifluoromethylspiro[1,3-dihydroisobenzofuran-1,4'-(hexahydropyridine)]] | 2.6 nM |
| Fc1ccc(-n2cc(CCCCN3CCC4(CC3)COc3ccccc3C4)c3ccccc32)cc1 [1'-{4-[1-(4-fluorophenyl)-1H-3-indolyl]butyl}spiro[3,4-dihydro-2H-chromene-3,4'-(hexahydropyridine)]] | 250 nM |
| Fc1ccc(-n2cc(CCCCN3CCC4(CCOc5ccccc54)CC3)c3ccccc32)cc1 [1'-{4-[1-(4-fluorophenyl)-1H-3-indolyl]butyl}spiro[3,4-dihydro-2H-chromene-4,4'-(hexahydropyridine)]] | 3 nM |
| Fc1ccc(-n2cc(CCCCN3CCC4(CC3)OCCc3ccccc34)c3ccccc32)cc1 [1'-{4-[1-(4-fluorophenyl)-1H-3-indolyl]butyl}spiro[3,4-dihydro-1H-isochromene-1,4'-(hexahydropyridine)]] | 0.9 nM |
| Fc1ccc(-n2cc(CCCCN3CCC4(CC3)OCc3c(F)cccc34)c3ccccc32)cc1 [1-[1-(4-fluorophenyl)-1H-3-indolyl]-4-[4-fluorospiro[1,3-dihydroisobenzofuran-1,4'-(hexahydropyridine)]-1-yl]butane] | 1.8 nM |
| Fc1ccc(-n2cc(CCCCN3CCC4(CC3)Cc3ccccc3O4)c3ccccc32)cc1 [1'-{4-[1-(4-fluorophenyl)-1H-3-indolyl]butyl}spiro[2,3-dihydrobenzo[b]furan-2,4'-(hexahydropyridine)]] | 340 nM |
